According to PMC4010550, “Imidazol-1-ylethylindazole Voltage-Gated Sodium Channel Ligands Are Neuroprotective during Optic Neuritis in a Mouse Model of Multiple Sclerosis” (Journal of Medicinal Chemistry, 2014):
Where two headings read alike, the source gives them in different places. Marks after values point to notes of the source that are not given here.

How the values were obtained:
[1] = test system: sodium channels; design: method as in PMID 19341281; conditions: reported previously / values reported in literature; read-out: [3H]sipatrigine binding, IC50; cited from earlier work
[2] = test system: rat hippocampal slices; test: in vitro neuroprotection assay, hippocampal slices under oxygen-glucose deprivation, ATP levels; format: cell-based; conditions: for Emax at 50 µM: Rattus norvegicus
[3] = test system: rat hippocampal slices; design: method as in PMID 19341281; conditions: reported previously; cited from earlier work
[4] = target: hNav1.1 (Homo sapiens, UniProt P35498); test: automated patch-clamp Nav isoform screening; format: cell-based; conditions: Nav1.1
[5] = target: hNav1.2 (Homo sapiens, UniProt Q99250); test: automated patch-clamp Nav isoform screening; format: cell-based; conditions: Nav1.2
[6] = target: hNav1.3 (Homo sapiens, UniProt Q9NY46); test: automated patch-clamp Nav isoform screening; format: cell-based; conditions: Nav1.3
[7] = target: hNav1.4 (Homo sapiens, UniProt P35499); test: automated patch-clamp Nav isoform screening; format: cell-based; conditions: Nav1.4
[8] = target: hNav1.5 (Homo sapiens, UniProt Q14524); test: automated patch-clamp Nav isoform screening; format: cell-based; conditions: Nav1.5
[9] = target: hNav1.6 (Homo sapiens, UniProt Q9UQD0); test: automated patch-clamp Nav isoform screening; format: cell-based; conditions: Nav1.6
[10] = target: hNav1.7 (Homo sapiens, UniProt Q15858); test: automated patch-clamp Nav isoform screening; format: cell-based; conditions: Nav1.7
[11] = target: hNav1.8/β3 (Homo sapiens, UniProt Q9Y5Y9); test: automated patch-clamp Nav isoform screening; format: cell-based; conditions: Nav1.8
[12] = test system: T-cell proliferation to oxazolone in lymphnodes; test: contact hypersensitivity model / in vivo local lymph node assay (T-cell immunosuppressive activity); conditions: mouse, 5–50 mg/kg i.p. day −1 to day 2, oxazolone sensitization day 0, read day 3
[13] = normalized to the effect of TTX

hNav1.6, sequence (Q9UQD0 whole entry, canonical isoform): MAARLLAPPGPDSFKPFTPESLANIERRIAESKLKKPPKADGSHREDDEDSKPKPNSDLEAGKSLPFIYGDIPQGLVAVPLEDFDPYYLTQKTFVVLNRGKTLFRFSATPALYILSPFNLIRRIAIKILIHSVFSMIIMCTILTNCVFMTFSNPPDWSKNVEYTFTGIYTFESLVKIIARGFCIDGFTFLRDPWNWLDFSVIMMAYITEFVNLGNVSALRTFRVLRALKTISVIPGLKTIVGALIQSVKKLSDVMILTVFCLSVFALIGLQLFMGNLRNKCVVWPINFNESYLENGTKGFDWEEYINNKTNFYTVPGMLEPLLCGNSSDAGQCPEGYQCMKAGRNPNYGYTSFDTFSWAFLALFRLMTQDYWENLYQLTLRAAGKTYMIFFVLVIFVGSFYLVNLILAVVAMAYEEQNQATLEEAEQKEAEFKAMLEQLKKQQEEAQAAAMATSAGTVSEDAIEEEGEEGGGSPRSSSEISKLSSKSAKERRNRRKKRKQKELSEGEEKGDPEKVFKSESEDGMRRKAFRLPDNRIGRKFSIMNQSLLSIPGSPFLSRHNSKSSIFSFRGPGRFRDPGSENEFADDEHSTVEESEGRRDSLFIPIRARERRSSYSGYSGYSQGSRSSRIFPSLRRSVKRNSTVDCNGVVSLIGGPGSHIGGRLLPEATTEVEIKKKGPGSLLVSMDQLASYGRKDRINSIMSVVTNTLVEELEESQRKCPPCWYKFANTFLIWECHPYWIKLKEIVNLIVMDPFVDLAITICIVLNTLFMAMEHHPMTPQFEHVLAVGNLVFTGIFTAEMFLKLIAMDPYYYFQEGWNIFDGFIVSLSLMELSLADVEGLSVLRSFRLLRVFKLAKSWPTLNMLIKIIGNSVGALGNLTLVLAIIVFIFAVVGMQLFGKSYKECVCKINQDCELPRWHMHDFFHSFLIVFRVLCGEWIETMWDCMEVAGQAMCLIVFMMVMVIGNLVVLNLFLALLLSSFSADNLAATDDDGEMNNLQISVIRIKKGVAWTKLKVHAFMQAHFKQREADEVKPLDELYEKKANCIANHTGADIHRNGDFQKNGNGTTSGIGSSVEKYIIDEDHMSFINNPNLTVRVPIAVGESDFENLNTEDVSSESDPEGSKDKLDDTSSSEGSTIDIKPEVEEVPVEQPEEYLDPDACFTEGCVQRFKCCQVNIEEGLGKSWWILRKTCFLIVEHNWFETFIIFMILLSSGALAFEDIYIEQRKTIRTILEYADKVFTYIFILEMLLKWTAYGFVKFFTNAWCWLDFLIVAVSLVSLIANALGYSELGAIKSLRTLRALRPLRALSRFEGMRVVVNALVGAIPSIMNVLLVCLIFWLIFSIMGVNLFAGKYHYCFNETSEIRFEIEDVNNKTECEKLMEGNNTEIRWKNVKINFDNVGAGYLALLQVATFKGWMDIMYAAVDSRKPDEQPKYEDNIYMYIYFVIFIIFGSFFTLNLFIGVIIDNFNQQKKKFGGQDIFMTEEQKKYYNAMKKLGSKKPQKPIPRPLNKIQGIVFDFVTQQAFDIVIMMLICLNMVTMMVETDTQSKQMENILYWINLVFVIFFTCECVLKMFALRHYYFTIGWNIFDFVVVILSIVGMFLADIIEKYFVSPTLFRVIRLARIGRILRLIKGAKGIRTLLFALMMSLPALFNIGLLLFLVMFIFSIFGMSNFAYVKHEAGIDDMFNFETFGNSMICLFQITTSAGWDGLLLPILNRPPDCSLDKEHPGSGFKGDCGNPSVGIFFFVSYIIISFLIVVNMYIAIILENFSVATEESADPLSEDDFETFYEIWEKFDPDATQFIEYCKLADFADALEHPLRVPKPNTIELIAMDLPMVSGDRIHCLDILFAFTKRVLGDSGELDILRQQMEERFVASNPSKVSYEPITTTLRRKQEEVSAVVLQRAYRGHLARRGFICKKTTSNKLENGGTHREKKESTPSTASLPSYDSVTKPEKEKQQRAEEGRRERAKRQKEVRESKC
hNav1.7, sequence (Q15858 whole entry, canonical isoform): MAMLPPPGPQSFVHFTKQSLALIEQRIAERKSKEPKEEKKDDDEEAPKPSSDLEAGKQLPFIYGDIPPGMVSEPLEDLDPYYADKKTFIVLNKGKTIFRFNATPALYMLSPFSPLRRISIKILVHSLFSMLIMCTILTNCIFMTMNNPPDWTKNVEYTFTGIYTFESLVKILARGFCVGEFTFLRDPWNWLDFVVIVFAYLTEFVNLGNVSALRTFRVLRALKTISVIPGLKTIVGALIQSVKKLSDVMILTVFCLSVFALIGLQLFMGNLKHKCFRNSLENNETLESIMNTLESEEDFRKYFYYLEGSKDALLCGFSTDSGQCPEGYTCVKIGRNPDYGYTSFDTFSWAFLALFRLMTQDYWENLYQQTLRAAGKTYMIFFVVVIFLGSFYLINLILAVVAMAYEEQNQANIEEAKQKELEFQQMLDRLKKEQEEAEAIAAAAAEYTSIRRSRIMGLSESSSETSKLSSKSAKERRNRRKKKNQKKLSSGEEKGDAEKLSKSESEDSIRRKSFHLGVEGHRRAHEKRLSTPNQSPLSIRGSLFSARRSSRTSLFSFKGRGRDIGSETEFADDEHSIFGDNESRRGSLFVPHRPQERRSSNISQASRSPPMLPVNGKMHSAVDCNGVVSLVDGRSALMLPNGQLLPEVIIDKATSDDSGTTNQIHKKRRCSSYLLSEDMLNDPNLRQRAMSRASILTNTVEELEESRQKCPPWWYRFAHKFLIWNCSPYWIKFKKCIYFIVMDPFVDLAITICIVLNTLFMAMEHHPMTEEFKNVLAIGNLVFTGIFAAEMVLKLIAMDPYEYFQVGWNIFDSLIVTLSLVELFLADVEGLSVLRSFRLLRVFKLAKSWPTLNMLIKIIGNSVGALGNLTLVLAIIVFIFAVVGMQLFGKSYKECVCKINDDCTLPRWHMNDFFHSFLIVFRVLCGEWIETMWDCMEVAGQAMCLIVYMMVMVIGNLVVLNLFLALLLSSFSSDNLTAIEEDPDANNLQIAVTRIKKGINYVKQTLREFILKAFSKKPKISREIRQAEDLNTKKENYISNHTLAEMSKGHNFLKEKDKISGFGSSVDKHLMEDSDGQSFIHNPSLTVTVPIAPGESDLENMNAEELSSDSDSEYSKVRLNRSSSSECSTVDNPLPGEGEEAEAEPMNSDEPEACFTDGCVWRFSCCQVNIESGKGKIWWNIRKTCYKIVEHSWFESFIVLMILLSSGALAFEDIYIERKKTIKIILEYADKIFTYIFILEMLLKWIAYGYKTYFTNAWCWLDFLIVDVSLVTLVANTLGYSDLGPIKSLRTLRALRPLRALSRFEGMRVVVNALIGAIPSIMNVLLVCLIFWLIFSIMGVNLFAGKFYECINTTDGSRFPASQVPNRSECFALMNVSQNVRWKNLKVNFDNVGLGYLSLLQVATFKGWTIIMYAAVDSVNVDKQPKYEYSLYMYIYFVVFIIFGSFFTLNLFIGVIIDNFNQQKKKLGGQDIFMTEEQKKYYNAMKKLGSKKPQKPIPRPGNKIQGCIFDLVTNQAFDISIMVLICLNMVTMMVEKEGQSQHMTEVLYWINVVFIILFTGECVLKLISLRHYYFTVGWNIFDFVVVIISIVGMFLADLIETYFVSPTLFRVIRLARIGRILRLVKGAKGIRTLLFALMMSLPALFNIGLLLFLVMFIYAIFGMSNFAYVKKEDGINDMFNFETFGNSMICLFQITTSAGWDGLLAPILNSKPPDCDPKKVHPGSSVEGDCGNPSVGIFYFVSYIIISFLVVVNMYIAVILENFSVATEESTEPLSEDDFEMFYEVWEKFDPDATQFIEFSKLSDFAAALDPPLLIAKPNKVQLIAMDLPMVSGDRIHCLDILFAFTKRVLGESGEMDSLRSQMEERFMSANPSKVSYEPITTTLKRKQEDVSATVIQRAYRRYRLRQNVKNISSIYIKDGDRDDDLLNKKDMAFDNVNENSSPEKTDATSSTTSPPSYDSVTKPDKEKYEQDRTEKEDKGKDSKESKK

NCc1noc(-c2nn(Cc3ccccc3)c3ccccc23)n1 [compound 24]
IC50 [1]: 3.3 ± 0.6 µM

NCc1noc(-c2c3ccccc3nn2Cc2ccccc2)n1 [compound 25]
IC50 [1]: 7 ± 2.8 µM

COc1cccc(C(=O)NCc2noc(-c3nn(CCn4ccnc4)c4ccccc34)n2)c1OC [compound 41]
Emax at 50 µM [2, 13]: 71%

NC1=N[C@H](O)[C@H]2[C@H]3O[C@]4(O)O[C@@H]([C@@H](O)[C@@]2(N1)[C@@H]4O)[C@]3(O)CO [tetrodotoxin, reference compound]
neuroprotection [2]: 100 ^c %

CC(C)(C)OC(=O)NCc1noc(-c2c3ccccc3nn2Cc2ccccc2)n1 [compound 15]
IC50 [1]: 5.5 µM | neuroprotection at 50 μM [3]: 25 ^e %

CN1CCN(c2ncc(-c3cc(Cl)cc(Cl)c3Cl)c(N)n2)CC1 [sipatrigine, reference compound]
neuroprotection ([2]; tested at 3 μM): 93 ^d % | IC50 [1]: 0.04 ± 0.001 µM

CC(C)(C)OC(=O)NCc1noc(-c2nn(Cc3ccccc3)c3ccccc23)n1 [compound 14]
IC50 [1]: 8.3 µM | neuroprotection at 50 μM [3]: 19 ^e %

O=C(NCc1noc(-c2c3ccccc3nn2CCn2ccnc2)n1)c1ccccc1 [compound 34]
Emax at 50 µM [2, 13]: 41 ± 9.4%

Nc1nnc(-c2cccc(Cl)c2Cl)c(N)n1 [lamotrigine, reference compound]
neuroprotection ([2]; tested at 30 μM, normalized to the effect of TTX): 33 ^b % | IC50 [1]: 1.8 ± 0.2 µM

O=C(NCc1noc(-c2nn(CCn3ccnc3)c3ccccc23)n1)c1ccccc1 [compound 6, N-[[5-[1-(2-Imidazol-1-ylethyl)indazol-3-yl]-1,2,4-oxadiazol-3-yl]methyl]benzamide]
Emax at 50 µM [2, 13]: 46% | inactivated-state block (c) n (slope of the fit) [4]: 1.71 ± 0.73 | 10 Hz block (b) n (slope of the fit) [5]: 1.82 ± 0.73 | inactivated-state block (c) n (slope of the fit) [5]: 1.48 ± 0.38 | tonic block (a) n (slope of the fit) [5]: 1.12 ± 0.51 | inactivated-state block (c) n (slope of the fit) [6]: 0.78 ± 0.15 | 10 Hz block (b) n (slope of the fit) [7]: 1.21 ± 0.36 | inactivated-state block (c) n (slope of the fit) [7]: 1.43 ± 0.27 | 10 Hz block (b) n (slope of the fit) [8]: 1.16 ± 0.54 | inactivated-state block (c) n (slope of the fit) [8]: 0.99 ± 0.22 | inactivated-state block (c) n (slope of the fit) [9]: 2.45 ± 2.59 | inactivated-state block (c) n (slope of the fit) [10]: 2.24 ± 0.17 | tonic block (a) n (slope of the fit) [10]: 2.09 ± 1.73 | inactivated-state block (c) n (slope of the fit) [11]: 1.42 ± 0.1 | T-cell immunosuppressive activity (inhibitory effect of sensitization; lymph node cell numbers, per cell proliferative response) [12]: no evidence suggestive of any inhibitory effect of sensitization

O=C(NCc1noc(-c2c3ccccc3nn2CCn2ccnc2)n1)c1cccc(OC(F)(F)F)c1 [compound 51]
10 Hz block (b) n (slope of the fit) [4]: 1.32 ± 0.16 | inactivated-state block (c) n (slope of the fit) [4]: 2.09 ± 0.32 | tonic block (a) n (slope of the fit) [4]: 1.09 ± 0.24 | 10 Hz block (b) n (slope of the fit) [5]: 0.63 ± 0.14 | inactivated-state block (c) n (slope of the fit) [5]: 0.6 ± 0.12 | tonic block (a) n (slope of the fit) [5]: 0.48 ± 0.14 | 10 Hz block (b) n (slope of the fit) [6]: 0.35 ± 0.19 | inactivated-state block (c) n (slope of the fit) [6]: 0.96 ± 0.19 | 10 Hz block (b) n (slope of the fit) [7]: 1.34 ± 0.13 | inactivated-state block (c) n (slope of the fit) [7]: 1.75 ± 0.12 | tonic block (a) n (slope of the fit) [7]: 1.23 ± 0.18 | 10 Hz block (b) n (slope of the fit) [8]: 0.37 ± 0.13 | inactivated-state block (c) n (slope of the fit) [8]: 0.49 ± 0.15 | tonic block (a) n (slope of the fit) [8]: 0.76 ± 0.23 | 10 Hz block (b) n (slope of the fit) [9]: 0.42 ± 0.19 | inactivated-state block (c) n (slope of the fit) [9]: 1.17 ± 0.18 | 10 Hz block (b) n (slope of the fit) [10]: 2.63 ± 0.33 | inactivated-state block (c) n (slope of the fit) [10]: 2.5 ± 0.1 | tonic block (a) n (slope of the fit) [10]: 2.59 ± 0.41 | 10 Hz block (b) n (slope of the fit) [11]: 2.62 ± 1.05 | inactivated-state block (c) n (slope of the fit) [11]: 2.75 ± 0.66 | tonic block (a) n (slope of the fit) [11]: 2.14 ± 0.51
